Laboratory results: ChEMBL document CHEMBL5584321, “Chemoenzymatic Synthesis of DNP-Functionalized FGFR1-Binding Peptides as Novel Peptidomimetic Immunotherapeutics for Treating Lung Cancer” (J Med Chem, 2024)
Active and inactive are the calls of the source. The calls are words filed in the database; no cut-off is given here. Where a SMILES comes first, the peptide text is derived from it. The star is where a group is joined. X1 = O=[N+]([O-])c1ccc(OCCOCCOCCOCCOCCOCCN*)c([N+](=O)[O-])c1; FITC = O=C1OC2(c3ccc(O)cc3Oc3cc(O)ccc32)c2ccc(NC(=S)*)cc21; X2 = O=[N+]([O-])c1ccc(OCCOCCOCCN*)c([N+](=O)[O-])c1; X3 = O=[N+]([O-])c1ccc(OCCN*)c([N+](=O)[O-])c1; Ahx = NCCCCCC(=O)O

Assays:
[1] = system: L6; test: Binding affinity to human full-length wild type FGFR1c stably expressed in rat L6 cells assessed as increase in green fluorescence signal incubated for 1 hr by Alexa-488 staining based confocal fluorescence microscopic analysis; format: cell-based
[2] = system: L6; test: Induction of apoptosis in FGF2-induced rat L6 cells stably expressing human full-length FGFR1c assessed as upregulation of cleaved caspase-3 expression at 50 uM incubated for 24 hrs by Western blotting analysis; format: functional, cell-based
[3] = system: L6; test: Induction of apoptosis in FGF2-induced rat L6 cells stably expressing human full-length FGFR1c assessed as upregulation of cleaved PARP expression at 50 uM incubated for 24 hrs by Western blotting analysis; format: functional, cell-based
[4] = system: NCI-H1581; test: Binding affinity to FGFR1c in human NCI-H1581 cells assessed as fold change in fluorescence intensity at 10 uM by antibody recruiting based flow cytometry relative to Pep1; format: cell-based
[5] = system: L6; test: Binding affinity to human full-length wild type FGFR1c stably expressed in rat L6 cells assessed as increase in fluorescence signal by antibody recruiting based flow cytometry; format: cell-based
[6] = system: NCI-H1581; test: Induction of cell lysis in human NCI-H1581 cells at 1 uM incubated for 1 hr by complement dependent cytotoxicity based CCK-8 assay relative to control; format: functional
[7] = Binding affinity to CM5 sensor chip immobilized human full-length wild type FGFR1c assessed as dissociation constant by SPR analysis
[8] = system: L6; test: Binding affinity to human full-length wild type FGFR1c stably expressed in rat L6 cells assessed as fold change in fluorescence intensity at 10 uM by antibody recruiting based flow cytometry relative to Pep1; format: cell-based
[9] = system: L6; test: Induction of cell lysis in rat L6 cells stably expressing human full-length FGFR1c at 1 uM incubated for 1 hr by complement dependent cytotoxicity based CCK-8 assay relative to control; format: functional
[10] = system: L6; test: Antiproliferative activity against FGF2-induced rat L6 cells stably expressing human full-length FGFR1c assessed as inhibition of cell growth incubated for 36 hrs by CCK-8 assay; format: functional, cell-based
[11] = system: L6; test: Induction of apoptosis in FGF2-induced rat L6 cells stably expressing human full-length FGFR1c assessed as downregulation of BCL-2 expression at 50 uM incubated for 24 hrs by Western blotting analysis; format: functional, cell-based
[12] = system: NCI-H1581; test: Binding affinity to FGFR1c in human NCI-H1581 cells assessed as fluorescence intensity at 10 uM by antibody recruiting based flow cytometry; format: cell-based
[13] = system: NCI-H1581; test: Binding affinity to FGFR1c in human NCI-H1581 cells assessed as increase in green fluorescence signal incubated for 1 hr by Alexa-488 staining based confocal fluorescence microscopic analysis; format: cell-based
[14] = system: L6; test: Antiproliferative activity against FGF2-induced rat L6 cells stably expressing human full-length FGFR1c assessed as inhibition of cell growth at 100 uM incubated for 36 hrs by CCK-8 assay relative to control; format: functional
[15] = system: L6; test: Induction of cell lysis in rat L6 cells at 1 uM incubated for 1 hr by complement dependent cytotoxicity based CCK-8 assay relative to control; format: functional
[16] = system: L6; test: Binding affinity to human full-length wild type FGFR1c stably expressed in rat L6 cells assessed as fluorescence intensity at 10 uM by antibody recruiting based flow cytometry; format: cell-based
[17] = system: NCI-H1581; test: Binding affinity to FGFR1c in human NCI-H1581 cells assessed as increase in fluorescence signal by antibody recruiting based flow cytometry; format: cell-based
[18] = system: L6; test: Binding affinity to FGFR1c in rat L6 cells assessed as increase in green fluorescence signal incubated for 1 hr by Alexa-488 staining based confocal fluorescence microscopic analysis; format: cell-based
[19] = system: L6; test: Binding affinity to human full-length wild type FGFR1c stably expressed in rat L6 cells assessed as increase in green fluorescence signal at 2 uM by DAPI staining based confocal […] microscopic analysis; format: cell-based
[20] = Cmax in immunized Sprague-Dawley rat at 1.5 mg/kg,SC administration measured upto 24 hrs by fluorescence based microplate reader assay; format: ADME, organism-based; conditions: in vivo
[21] = Half life in immunized Sprague-Dawley rat at 1.5 mg/kg,SC administration measured upto 24 hrs by fluorescence based microplate reader assay; format: ADME, organism-based; conditions: in vivo
[22] = Tmax in immunized Sprague-Dawley rat at 1.5 mg/kg,SC administration measured upto 24 hrs by fluorescence based microplate reader assay; format: ADME, organism-based; conditions: in vivo
[23] = system: L6; test: Binding affinity to FGFR1c in rat L6 cells assessed as increase in green fluorescence signal at 2 uM by DAPI staining based confocal […] microscopic analysis; format: cell-based
[24] = system: NCI-H1581; test: Antitumor activity against human NCI-H1581 cells xenografted BALB/c mouse model assessed as inhibition of tumor growth at 20 mg/kg,SC administrated once daily for 12 days relative to control; format: functional; conditions: NCI-H1581, 288 h, time 12 day
[25] = system: L6; test: Induction of apoptosis in FGF2-induced rat L6 cells stably expressing human full-length FGFR1c assessed as upregulation of cleaved PARP expression incubated for 24 hrs by Western blotting analysis; format: functional, cell-based
[26] = AUC in immunized Sprague-Dawley rat at 1.5 mg/kg,SC administration measured upto 24 hrs by fluorescence based microplate reader assay; format: ADME, organism-based; conditions: in vivo
[27] = system: L6; test: Induction of apoptosis in FGF2-induced rat L6 cells stably expressing human full-length FGFR1c assessed as upregulation of cleaved caspase-3 expression incubated for 24 hrs by Western blotting analysis; format: functional, cell-based

## CC(C)C[C@H](NC(=O)[C@H](CO)NC(=O)[C@H](C)NC(=O)[C@H](Cc1c[nH]c2ccccc12)NC(=O)[C@H](CCCCN)NC(=O)[C@H](CCCCN)NC(=O)[C@H](CCCNC(=N)N)NC(=O)[C@@H](NC(=O)[C@H](CO)NC(=O)[C@H](CCCNC(=N)N)NC(=O)[C@@H](N)CCCNC(=N)N)C(C)C)C(=O)N[C@@H](Cc1ccc(O)cc1)C(=O)N[C@@H](Cc1ccc(O)cc1)C(=O)N[C@@H](CO)C(=O)N[C@@H](Cc1ccc(O)cc1)C(=O)N[C@@H](CC(C)C)C(=O)N1CCC[C@H]1C(=O)N[C@@H](CCC(=O)O)C(=O)N[C@H](C(=O)NCC(=O)NCC(=O)NCC(=O)NCCOCCOCCOCCOCCOCCOc1ccc([N+](=O)[O-])cc1[N+](=O)[O-])[C@@H](C)O (H-RRSVRKKWASLYYSYLPETGGG-X1)
[1]
  Activity: inactive

## CC(C)C[C@H](NC(=O)[C@H](C)NC(=O)[C@@H](NC(=O)[C@H](Cc1ccc(O)cc1)NC(=O)[C@H](Cc1c[nH]c2ccccc12)NC(=O)[C@H](CO)NC(=O)[C@H](CO)NC(=O)[C@H](Cc1ccc(O)cc1)NC(=O)[C@H](CCCCN)NC(=O)[C@H](CCCNC(=N)N)NC(=O)[C@H](CO)NC(=O)[C@H](CCCNC(=N)N)NC(=O)[C@@H](N)Cc1ccc(O)cc1)C(C)C)C(=O)N[C@@H](CCCCN)C(=O)N[C@@H](CCCNC(=N)N)C(=O)N[C@@H](CC(C)C)C(=O)N1CCC[C@H]1C(=O)N[C@@H](CCC(=O)O)C(=O)N[C@H](C(=O)NCC(=O)NCC(=O)NCC(=O)NCCOCCOCCOc1ccc([N+](=O)[O-])cc1[N+](=O)[O-])[C@@H](C)O (H-YRSRKYSSWYVALKRLPETGGG-X2)
[2]
  Activity: Active
[3]
  Activity: Active
[1]
  Activity: Active
[4]
  fold change (FC): 3.6
[5]
  Activity: Dose-Dependent Effect
[6]
  Activity: 31.7%
[7]
  Kd: 5.37 µM
[8]
  fold change (FC): 33.4
[9]
  Activity: 25.9%
[10]
  Activity: Dose-Dependent Effect
[11]
  Activity: Active
[12]
  Flu intensity: 0.5 10^3No_unit
[13]
  Activity: Active
[14]
  inhibition at 100 µM: 100%
[15]
  Activity: inactive
[16]
  Flu intensity: 0.3 10^4No_unit
[17]
  Activity: Dose-Dependent Effect
[18]
  Activity: inactive

## CC(C)C[C@H](NC(=O)[C@H](C)NC(=O)[C@@H](NC(=O)[C@H](Cc1ccc(O)cc1)NC(=O)[C@H](Cc1c[nH]c2ccccc12)NC(=O)[C@H](CO)NC(=O)[C@H](CO)NC(=O)[C@H](Cc1ccc(O)cc1)NC(=O)[C@H](CCCCN)NC(=O)[C@H](CCCNC(=N)N)NC(=O)[C@H](CO)NC(=O)[C@H](CCCNC(=N)N)NC(=O)[C@@H](N)Cc1ccc(O)cc1)C(C)C)C(=O)N[C@@H](CCCCN)C(=O)N[C@@H](CCCNC(=N)N)C(=O)N[C@@H](CC(C)C)C(=O)N1CCC[C@H]1C(=O)N[C@@H](CCC(=O)O)C(=O)N[C@H](C(=O)NCC(=O)NCC(=O)NCC(=O)NCCOc1ccc([N+](=O)[O-])cc1[N+](=O)[O-])[C@@H](C)O (H-YRSRKYSSWYVALKRLPETGGG-X3)
[2]
  Activity: Active
[3]
  Activity: Active
[1]
  Activity: Active
[4]
  fold change (FC): 22.4
[5]
  Activity: Dose-Dependent Effect
[6]
  Activity: 35.8%
[7]
  Kd: 5.95 µM
[8]
  fold change (FC): 180
[9]
  Activity: 29.3%
[10]
  Activity: Dose-Dependent Effect
[11]
  Activity: Active
[12]
  Flu intensity: 3.5 10^3No_unit
[13]
  Activity: Active
[14]
  inhibition at 100 µM: 100%
[15]
  Activity: inactive
[16]
  Flu intensity: 1.6 10^4No_unit
[17]
  Activity: Dose-Dependent Effect
[18]
  Activity: inactive

## CC(C)C[C@H](NC(=O)[C@H](CO)NC(=O)[C@H](C)NC(=O)[C@H](Cc1c[nH]c2ccccc12)NC(=O)[C@H](CCCCN)NC(=O)[C@H](CCCCN)NC(=O)[C@H](CCCNC(=N)N)NC(=O)[C@@H](NC(=O)[C@H](CO)NC(=O)[C@H](CCCNC(=N)N)NC(=O)[C@H](CCCNC(=N)N)NC(=O)CCCCCNC(=S)Nc1ccc2c(c1)C(=O)OC21c2ccc(O)cc2Oc2cc(O)ccc21)C(C)C)C(=O)N[C@@H](Cc1ccc(O)cc1)C(=O)N[C@@H](Cc1ccc(O)cc1)C(=O)N[C@@H](CO)C(=O)N[C@@H](Cc1ccc(O)cc1)C(N)=O ({FITC-Ahx}-RRSVRKKWASLYYSY-NH2)
[19]
  Activity: inactive

## H-YRSRKYSSWYVALKRLPET-NH2
[20]
  Cmax: 205 ng/mL
[21]
  half-life: 2.12 h
[19]
  Activity: Active
[22]
  Tmax: 0.58 h
[7]
  Kd: 1.6 µM
[23]
  Activity: inactive
[10]
  Activity: Dose-Dependent Effect
[24]
  inhibition in vivo at 20 mg/kg: 44.2%
[14]
  inhibition at 100 µM: 100%
[25]
  Activity: Dose-Dependent Effect
[26]
  AUC at 24 h: 711 ng·h/mL
[27]
  Activity: Dose-Dependent Effect
